Read-outs that look alike come from different tables or passages of the source.
Legend:
[1] = system: OP9 cells differentiated into fat cells; test: Inhibition of lipid droplet accumulation in fat cells differentiated from OP9 cells (glycerol cell-based assay), isolated compounds; parameters: species or system mouse; settings: final concentration 100 μM, 7 days, blank group = 100%
From the text: Herein, the content of glycerol in fat cells is used as a quantitative indicator to observe whether there is lipolysis.
A cell culture medium used is the α-minimum essential medium (α-MEM, Gibco, number 12000-022) containing 20% of fetal bovine serum (FBS. Gibco, number 10438-026) and 1% of antibiotic-antimycotic (Gibco, number 15240-062).
First, 8×10^4 OP9 cells (purchased from the American Type Culture Collection, ATCC®, number ATCC CRL-2749) were inoculated into a 24-well culture plate containing 500 μL of cell culture medium per well, and cultured at 37° C. for 7 days. During the 7-day cell culture, the cell culture medium was changed every 3 days. After the 7 days of culture, the formation of lipid droplets in the OP9 cells was observed by using a microscope (ZEISS; magnification 400×) to confirm that the OP9 cells were fully differentiated into fat cells for subsequent experiments.
Then, the differentiated fat cells were divided into a blank group and 5 experimental groups. The cell culture medium in each group was replaced with 500 μL of experimental medium per well, and then cultured at 37° C. for 7 days. During the 7-day culture, the experimental medium was replaced with a fresh 500 μL one every 3 days. The experimental culture medium in the blank group was just a cell culture medium (without other compounds), while the experimental culture medium in each of the 5 experimental group was a cell culture medium containing […] of corresponding compound identified in Example 7, and the 5 compounds were: syringin (TCI-LTF-01), 1,5-di-o-caffroylquinic acid (TCI-LTF-02), quercetin-3-glucuronide (TCI-LTF-03), gallic acid (TCI-LTF-06), and chlorogenic acid (TCI-LTF-08). […]
The content of glycerol was determined by using a glycerol cell-based assay kit (purchased from Cayman, USA, product number 10011725) according to the following steps. The experimental culture medium (that is, the experimental culture medium in which fat cells had been cultured, without the fat cells) in each group was collected, 25 μL of the experimental culture medium was transferred into a new 96-well culture plate, 100 μL of reconstituted free glycerol assay reagent was added into each well to react at room temperature for 15 min, and the absorbance OD540 nm of each group was read from the 96-well culture plate by an ELISA reader, to quantify the content of glycerol released into the experimental culture medium through lipolysis, as shown in FIG. 31. […] The obtained results were analyzed by student t-test using Excel software to determine whether there is a statistically significant difference between two sample groups. […]

PYY gene = test: Expression level of PYY gene in NCI-H716 cells (qRT-PCR); format: cell-based; settings: Homo sapiens, read-out: expression level of the PYY gene relative to the blank group
Method: Herein, the expression level of the gene (Gene ID: 5697) of the peptide tyrosine-tyrosine (PPY) protein in human colorectal adenocarcinoma NCI-H716 cells (purchased from the Bioresource Collection and Research Center (BCRC), number 60517; hereinafter referred to as NCI-H716 cells) treated with each of the compounds TCI-LTF-01, TCI-LTF-02, TCI-LTF-04, TCI-LTF-08, TCI-LTF-09, TCI-LTF-10, TCI-LTF-11, TCI-LTF-12, and TCI-LTF-14 that were identified in Example 7 was determined by using the RNA extraction kit, SuperScript® III Reverse Transcriptase, KAPA SYBR®FAST qPCR reagent kit, and quantitative PCR machine.
A cell culture medium used is a solution containing 20% of fetal bovine serum (FBS, purchased from Gibco, number 10438-026, US), 1% of antibiotic-antimycotic (purchased from Gibco, number 15240-062), 10 mM of HEPES buffer (purchased from Gibco, number 15630080), and 1 mM of sodium pyruvate (purchased from Gibco, number 11360070). The compounds TCI-LTF-01, TCI-LTF-02, TCI-LTF-04, TCI-LTF-08, TCI-LTF-09, TCI-LTF-10, TCI-LTF-11, TCI-LTF-12, and TCI-LTF-14 each was formulated into 100 mM of stock sample with the DMSO solvent.
First, the NCI-H716 cells were inoculated into a 6-well culture plate containing 2 mL of culture medium in a density of 1×10^5 cells per well, and cultured at 37° C. for 24 h. Next, the NCI-H716 cells were divided into a blank group and 9 experimental groups. Then, the cell culture medium in each group was replaced with 2 mL of experimental culture medium per well, and then cultured at 37° C. for 12 h. The experimental culture medium in the blank group was a cell culture medium with no treatment (that is, no additional compounds were added into the cell culture medium). The experimental culture medium in each of the 9 experimental groups was a cell culture medium containing […] of corresponding compound identified in Example 7, and the 9 compounds were: syringin (TCI-LTF-01), 1,5-di-o-caffroylquinic acid (TCI-LTF-02), luteolin (TCI-LTF-04), chlorogenic acid (TCI-LTF-08), dihydrocaffeic acid (TCI-LTF-09), caffeic acid (TCI-LTF-10), 4-hyderoxy-3-phenlylactic acid methyl ester (TCI-LTF-11), calceolarioside B (TCI-LTF-12), and 4-hydroxyphenolic acid (TCI-LTF-14). Herein, each of the 9 compounds was first formulated into 100 mM of stock sample with the DMSO solvent, and then added into the cell culture medium to give a final concentration of 100 μM in the cell culture medium. Each group was repeated for three times.
The cell membranes of the NCI-H716 cells treated in each group were broken with a cell lysis buffer to form a cell solution. Next, RNA of the 10 groups of cell solutions was extracted separately by using an RNA extraction reagent kit (purchased from Geneaid, Taiwan, Lot No. FC24015-G). Then, 1000 ng of the extracted RNA in each group was used as a template, and the extracted RNA was reverse transcribed into corresponding cDNA by the SuperScript® III reverse transcriptase (purchased from Invitrogene, USA, number 18080-051). Subsequently, the quantitative real-time reverse transcription polymerase chain reaction was carried out on the 10 groups of cDNA with the primers (SEQ ID NO: 15 to SEQ ID NO: 16) in Table 4 by using the ABI StepOnePlus™ Real-Time PCR system (Thermo Fisher Scientific, USA) and the KAPA SYBR FAST (purchased from Sigma, USA, number 38220000000) to observe the expression level of the PPY gene in the NCI-H716 cells in the 10 groups. The instrument setting conditions for the quantitative real-time reverse transcription polymerase chain reaction were 95° C. for 20 s, 95° C. for 3 s, 60° C. for 30 s, a total of 40 cycles, and gene quantification was carried out by the 2^−ΔCt method (using the m-ACTB gene as an internal reference gene). Herein, the quantitative real-time reverse transcription polymerase chain reaction with cDNA can indirectly quantify the expression level of the PYY protein encoded by the PPY gene. […]

[2] = NCI-H716 cells, final concentration 100 μM, 12 h, blank group = 1.0

Row | Compound | lipid droplet content [1] | fold induction at 100 µM (PYY gene; NCI-H716, 12 h) | fold induction at 100 µM (PYY gene; [2])
1 | COc1cc(/C=C/CO)cc(OC)c1O[C@@H]1O[C@H](CO)[C@@H](O)[C@H](O)[C@H]1O [TCI-LTF-01, Syringin] | 64.8% | 6.2 | –
2 | O=C(/C=C/c1ccc(O)c(O)c1)O[C@@H]1C[C@](OC(=O)/C=C/c2ccc(O)c(O)c2)(C(=O)O)C[C@@H](O)[C@H]1O [TCI-LTF-02, 1,5-Di-O-caffroylquinic acid] | 75.2% | – | 2.3
3 | O=c1cc(-c2ccc(O)c(O)c2)oc2cc(O)cc(O)c12 [TCI-LTF-04, Luteolin] | – | – | 3.6
4 | O=C(O)c1cc(O)c(O)c(O)c1 [TCI-LTF-06, Gallic acid] | 72.4% | – | –
5 | O=C(/C=C/c1ccc(O)c(O)c1)O[C@@H]1C[C@](O)(C(=O)O)C[C@@H](O)[C@H]1O [TCI-LTF-08, Chlorogenic acid] | 69.3% | – | 5.3
6 | O=C(O)CCc1ccc(O)c(O)c1 [TCI-LTF-09, Dihydrocaffeic acid] | – | – | 4.9
7 | O=C(O)/C=C/c1ccc(O)c(O)c1 [TCI-LTF-10, Caffeic acid] | – | – | 3.5
8 | COC(=O)C(O)Cc1ccc(O)cc1 (stereo not shown) [TCI-LTF-11, 4-Hyderoxy-3-phenlylactic acid methyl ester] | – | – | 4.5
9 | O=C(/C=C/c1ccc(O)c(O)c1)OC[C@H]1O[C@@H](OCCc2ccc(O)c(O)c2)[C@H](O)[C@@H](O)[C@@H]1O [TCI-LTF-12, Calceolarioside B] | – | – | 5.6
10 | O=C(O)c1ccc(O)cc1 [TCI-LTF-14, 4-Hydroxyphenolic acid] | – | – | 3.6
